Source: the supplement of paper PMC10627819

Tests used:
S. aureus Newman = assay: Bliss interaction score (quartile over a dose matrix) (fitness difference); higher = more antagonism (negative = synergy)
Summary of the method: (§1)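 Fitness here means normalised growth, inferred for single drugs from the combination data. Growth was OD595 at entry into stationary phase, divided by the plate's robust no-drug mean and capped at 1. The Bliss score is observed minus expected fitness, with the expectation being the product, and its quartiles span technical, biological and donor/recipient replicates.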

S. aureus DSM 20231 = assay: as above
Summary of the method: as §1

B. subtilis 168 = assay: as above
Summary of the method: as §1

S. pneumoniae D39V [1] = assay: as above
Summary of the method: as §1

S. pneumoniae D39V [2] = assay: fitness (endpoint OD595 vs no drug) (fraction); higher = more growth
Summary of the method: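 Fitness expresses the optical density reached at the stationary-phase transition as a fraction of the robust mean of no-drug control wells. It is capped at 1. Measurements were OD595 every 30 min for 14 h at 37 °C after inoculation of 384-well plates at OD595 0.01 (30 µl, or 55 µl for S. pneumoniae), minus the first reading.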
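For Bliss interaction score (quartile over a dose matrix) in this document: first quartile when negative (synergy) and third quartile when positive (antagonism).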
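For fitness (endpoint OD595 vs no drug) in this document: OD595 on entry to stationary phase over no-drug wells; at most 1.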

C[C@@H](O)[C@H]1C(=O)N2C(C(=O)O)=C(SCCNC=N)C[C@H]12 [Imipenem] + COc1c(N2C[C@@H]3CCCN[C@@H]3C2)c(F)cc2c(=O)c(C(=O)O)cn(C3CC3)c12 [Moxifloxacin]
Details	Bliss interaction score
B. subtilis 168	0.0307
S. aureus DSM 20231	-0.0816
S. aureus Newman	0.0177
S. pneumoniae D39V [1]	0.0521

fitness, S. pneumoniae D39V [2]
Details	first compound 0.005 µg/mL	first compound 0.0065 µg/mL	first compound 0.01 µg/mL	first compound 0.013 µg/mL	first compound 0.02 µg/mL	first compound 0.026 µg/mL
partner 0.0037 µg/mL	–	0.821	–	0.805	–	0.751
partner 0.005 µg/mL	0.968	–	0.949	–	0.963	–
partner 0.0075 µg/mL	–	0.853	–	0.863	–	0.649
partner 0.01 µg/mL	0.99	–	0.981	–	0.976	–
partner 0.015 µg/mL	–	0.856	–	0.67	–	0.65
partner 0.02 µg/mL	0.933	–	0.904	–	0.941	–

C[C@@H](O)[C@H]1C(=O)N2C(C(=O)O)=C(SCCNC=N)C[C@H]12 [Imipenem] + COc1ccc(C[C@H](N)C(=O)N[C@H]2[C@@H](O)[C@H](n3cnc4c(N(C)C)ncnc43)O[C@@H]2CO)cc1 [Puromycin]
Details	Bliss interaction score
B. subtilis 168	0.0681
S. aureus DSM 20231	0.0683
S. aureus Newman	-0.0481
S. pneumoniae D39V [1]	0.0871

fitness, S. pneumoniae D39V [2], one replicate
Details	first compound 0.005 µg/mL	first compound 0.01 µg/mL	first compound 0.02 µg/mL
partner 1 µg/mL	0.896	0.955	0.973
partner 2 µg/mL	0.931	0.954	0.941
partner 4 µg/mL	0.729	0.791	0.759

fitness, S. pneumoniae D39V [2]
Details	first compound 0.0065 µg/mL	first compound 0.013 µg/mL	first compound 0.026 µg/mL
partner 1 µg/mL	0.992	0.989	0.964
partner 2 µg/mL	0.96	0.886	0.906
partner 4 µg/mL	0.748	0.783	0.739

C[C@@H](O)[C@H]1C(=O)N2C(C(=O)O)=C(SCCNC=N)C[C@H]12 [Imipenem] + C[C@H]1COc2c(N3CCN(C)CC3)c(F)cc3c(=O)c(C(=O)O)cn1c23 [Levofloxacin]
Details	Bliss interaction score
B. subtilis 168	-0.17
S. aureus DSM 20231	0.025
S. aureus Newman	0.0287
S. pneumoniae D39V [1]	-0.0377

fitness, S. pneumoniae D39V [2]
Details	first compound 0.005 µg/mL	first compound 0.0065 µg/mL	first compound 0.01 µg/mL	first compound 0.013 µg/mL	first compound 0.02 µg/mL	first compound 0.026 µg/mL
partner 0.1725 µg/mL	0.958	–	0.948	–	0.963	–
partner 0.2 µg/mL	–	0.886	–	0.885	–	0.871
partner 0.345 µg/mL	0.894	–	0.877	–	0.826	–
partner 0.4 µg/mL	–	0.77	–	0.778	–	0.713
partner 0.69 µg/mL	0.571	–	0.615	–	0.576	–
partner 0.8 µg/mL	–	0.227	–	0.361	–	0.329

C[C@@H](O)[C@H]1C(=O)N2C(C(=O)O)=C(SCCNC=N)C[C@H]12 [Imipenem] + C[n+]1ccc(-c2cc[n+](C)cc2)cc1 [Paraquat]
Details	Bliss interaction score
B. subtilis 168	-0.0424
S. aureus DSM 20231	0.0307
S. aureus Newman	0.0426
S. pneumoniae D39V [1]	0.0638

fitness, S. pneumoniae D39V [2], one replicate
Details	first compound 0.005 µg/mL	first compound 0.01 µg/mL	first compound 0.02 µg/mL
partner 1.5 µg/mL	0.991	0.997	≥ 1
partner 3 µg/mL	0.994	0.996	≥ 1
partner 6 µg/mL	≥ 1	≥ 1	0.998

fitness, S. pneumoniae D39V [2]
Details	first compound 0.0065 µg/mL	first compound 0.013 µg/mL	first compound 0.026 µg/mL
partner 1.5 µg/mL	0.97	0.983	–
partner 3 µg/mL	0.968	0.969	0.939
partner 6 µg/mL	0.926	0.799	0.847

C[C@@H](O)[C@H]1C(=O)N2C(C(=O)O)=C(SCCNC=N)C[C@H]12 [Imipenem] + Cc1cc(NS(=O)(=O)c2ccc(N)cc2)no1 [Sulfamethoxazol]
Details	Bliss interaction score
B. subtilis 168	0.0891
S. aureus DSM 20231	-0.0317
S. aureus Newman	-0.0488
S. pneumoniae D39V [1]	0.066

fitness, S. pneumoniae D39V [2], one replicate
Details	first compound 0.005 µg/mL	first compound 0.01 µg/mL	first compound 0.02 µg/mL
partner 1 µg/mL	0.993	0.998	0.959
partner 2 µg/mL	0.957	0.924	0.982
partner 4 µg/mL	0.879	0.856	0.859

fitness, S. pneumoniae D39V [2]
Details	first compound 0.0065 µg/mL	first compound 0.013 µg/mL	first compound 0.026 µg/mL
partner 1 µg/mL	0.96	0.923	0.82
partner 2 µg/mL	0.976	0.932	0.925
partner 4 µg/mL	0.976	0.941	0.917

C[C@@H](O)[C@H]1C(=O)N2C(C(=O)O)=C(SCCNC=N)C[C@H]12 [Imipenem] + Cc1ncc([N+](=O)[O-])n1CCO [Metronidazole]
Details	Bliss interaction score
B. subtilis 168	0.0502
S. aureus DSM 20231	0.0365
S. aureus Newman	-0.0547
S. pneumoniae D39V [1]	0.0768

fitness, S. pneumoniae D39V [2]
Details	first compound 0.005 µg/mL	first compound 0.0065 µg/mL	first compound 0.01 µg/mL	first compound 0.013 µg/mL	first compound 0.02 µg/mL	first compound 0.026 µg/mL
partner 1.073 µg/mL	0.961	–	0.945	–	0.919	–
partner 1.25 µg/mL	–	0.991	–	0.995	–	0.985
partner 2.145 µg/mL	0.872	–	0.737	–	0.886	–
partner 2.5 µg/mL	–	0.988	–	≥ 1	–	0.984
partner 4.29 µg/mL	0.908	–	0.903	–	0.903	–
partner 5 µg/mL	–	0.99	–	0.969	–	0.961
